{"source": "paper PMC3509583", "about": "“Molecular Mechanisms of Pharmaceutical Drug Binding into Calsequestrin” (International Journal of Molecular Sciences, 2012)", "key": {"[1]": {"molecular_target": "T1, human cardiac calsequestrin (hCASQ2) (Homo sapiens, UniProt O14958)", "T1 sequence (O14958 20-399)": "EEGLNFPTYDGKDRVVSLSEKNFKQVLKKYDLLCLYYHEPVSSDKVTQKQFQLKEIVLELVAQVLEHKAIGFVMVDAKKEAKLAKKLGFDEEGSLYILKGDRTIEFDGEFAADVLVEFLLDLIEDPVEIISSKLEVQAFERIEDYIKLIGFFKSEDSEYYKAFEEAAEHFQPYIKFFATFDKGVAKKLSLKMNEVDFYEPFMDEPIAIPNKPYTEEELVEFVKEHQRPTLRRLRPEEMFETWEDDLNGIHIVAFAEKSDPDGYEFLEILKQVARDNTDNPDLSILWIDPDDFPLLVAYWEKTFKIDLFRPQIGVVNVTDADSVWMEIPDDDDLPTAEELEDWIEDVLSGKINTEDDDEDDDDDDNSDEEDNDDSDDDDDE", "parameters": "method as in PMID 20713040", "conditions": "cited from earlier work; for binding class based on ITC dissociation constants (Kd): hCASQ2, drugs grouped as strong, moderate or poor binders; for Kd: hCASQ2, ITC, previous studies, read-out: experimental dissociation constant (Kd)"}, "[2]": {"molecular_target": "T1, human cardiac calsequestrin (hCASQ2)", "assay": "Isothermal titration calorimetry (ITC) of drug binding to hCASQ2, with or without caffeine", "conditions": "hCASQ2, titration in the absence of caffeine (Supplemental Fig. 2); read-out: Dissociation constant (Kd)", "description": "We performed ITC assays to check the predicted competition between the natural compounds (CAF, EGC, and EGCG) and tested synthetic drugs.\nITC experiments were conducted using a previous protocol, with slight modifications. The protein and drug concentrations were kept at 50 μM and 2 mM, respectively, while the CAF concentration was allowed to vary between 0 and 5 mM for different drugs. […] Origin software (Origin Lab Corp, Northampton, MA, USA) was used to fit the data to a one-site binding model via non-linear least squares regression."}, "SR microsomes": {"test_system": "SR microsomes", "parameters": "method as in PMID 16141311, PMID 15492117", "conditions": "concentration- and time-dependent; cited from earlier work"}}, "note": "Like-named read-outs stand apart in the source and are kept apart here."}
{"smiles": "CN(C)CCC=C1c2ccccc2CCc2ccccc21", "note": "[amitriptyline]", "values": [{"measurement": "binding class based on ITC dissociation constants (Kd)", "setting": "[1]", "result": "moderate"}]}
{"smiles": "CCOC(=O)C1=C(COCCN)NC(C)=C(C(=O)OC)C1c1ccccc1Cl", "note": "(stereo not drawn) [amlodipine]", "values": [{"measurement": "Kd", "setting": "[1]", "result": 20.4, "unit": "µM"}, {"measurement": "binding class based on ITC dissociation constants (Kd)", "setting": "[1]", "result": "strong"}]}
{"smiles": "CN(C)CCCN1c2ccccc2Sc2ccc(Cl)cc21", "note": "[chlorpromazine]", "values": [{"measurement": "Kd", "setting": "[2]", "result": 102, "unit": "µM"}, {"measurement": "binding class based on ITC dissociation constants (Kd)", "setting": "[1]", "result": "poor"}]}
{"smiles": "COc1cccc2c1C(=O)c1c(O)c3c(c(O)c1C2=O)C[C@@](O)(C(C)=O)C[C@@H]3O[C@H]1C[C@H](N)[C@H](O)[C@H](C)O1", "note": "[daunomycin]", "values": [{"measurement": "Kd", "setting": "[1]", "result": 20.3, "unit": "µM"}, {"measurement": "binding class based on ITC dissociation constants (Kd)", "setting": "[1]", "result": "strong"}]}
{"smiles": "COc1ccc([C@@H]2Sc3ccccc3N(CCN(C)C)C(=O)[C@@H]2OC(C)=O)cc1", "note": "[diltiazem]", "values": [{"measurement": "Kd", "setting": "[2]", "result": 41, "unit": "µM"}, {"measurement": "binding class based on ITC dissociation constants (Kd)", "setting": "[1]", "result": "moderate"}]}
{"smiles": "COc1cccc2c1C(=O)c1c(O)c3c(c(O)c1C2=O)C[C@@](O)(C(=O)CO)C[C@@H]3O[C@H]1C[C@H](N)[C@H](O)[C@H](C)O1", "note": "[doxorubicin]", "values": [{"measurement": "Kd", "setting": "[1]", "result": 14.4, "unit": "µM"}, {"measurement": "binding class based on ITC dissociation constants (Kd)", "setting": "[1]", "result": "strong"}]}
{"smiles": "CN[C@@H](C)[C@H](O)c1ccccc1", "note": "[ephedrine]", "values": [{"measurement": "binding class based on ITC dissociation constants (Kd)", "setting": "[1]", "result": "poor"}]}
{"smiles": "CC(C)NCC(O)c1ccc(O)c(O)c1", "note": "(stereo not drawn) [isoproterenol]", "values": [{"measurement": "binding class based on ITC dissociation constants (Kd)", "setting": "[1]", "result": "poor"}]}
{"smiles": "COCCc1ccc(OCC(O)CNC(C)C)cc1", "note": "(stereo not drawn) [metoprolol]", "values": [{"measurement": "binding class based on ITC dissociation constants (Kd)", "setting": "[1]", "result": "poor"}]}
{"smiles": "Clc1ccc(COC(Cn2ccnc2)c2ccc(Cl)cc2Cl)c(Cl)c1", "note": "(stereo not drawn) [miconazole]", "values": [{"measurement": "binding class based on ITC dissociation constants (Kd)", "setting": "[1]", "result": "poor"}]}
{"smiles": "CNCCC=C1c2ccccc2CCc2ccccc21", "note": "[nortriptyline]", "values": [{"measurement": "binding class based on ITC dissociation constants (Kd)", "setting": "[1]", "result": "moderate"}]}
{"smiles": "CC(CN1c2ccccc2Sc2ccccc21)N(C)C", "note": "(stereo not drawn) [promethazine]", "values": [{"measurement": "binding class based on ITC dissociation constants (Kd)", "setting": "[1]", "result": "moderate"}]}
{"smiles": "CCCNCC(O)COc1ccccc1C(=O)CCc1ccccc1", "note": "(stereo not drawn) [propafenone]", "values": [{"measurement": "binding class based on ITC dissociation constants (Kd)", "setting": "[1]", "result": "poor"}]}
{"smiles": "CSc1ccc2c(c1)N(CCC1CCCCN1C)c1ccccc1S2", "note": "(stereo not drawn) [thioridazine]", "values": [{"measurement": "Kd", "setting": "[2]", "result": 22, "unit": "µM"}, {"measurement": "binding class based on ITC dissociation constants (Kd)", "setting": "[1]", "result": "strong"}]}
{"smiles": "CN1CCN(CCCN2c3ccccc3Sc3ccc(C(F)(F)F)cc32)CC1", "note": "[trifluoperazine]", "values": [{"measurement": "Kd", "setting": "[2]", "result": 36, "unit": "µM"}, {"measurement": "Kd", "setting": "[1]", "result": 18.2, "unit": "µM"}, {"measurement": "binding class based on ITC dissociation constants (Kd)", "setting": "[1]", "result": "strong"}, {"measurement": "total SR microsomal Ca2+ content", "setting": "SR microsomes", "result": "significantly reduce"}]}
